# From PMC9697826 (Pharmaceuticals, 2022)
row,SMILES,melting point
1,"Nc1c(C(=O)Nc2ccccc2)c(-c2ccccc2)n[nH]c1=O [Compound 4a, 5-Amino-6-oxo-3-phenyl-1,6-dihydropyridazine-4-carboxylic acid phenylamide]",228 to 229 °C
2,"CCn1nc(-c2ccccc2)c(C(=O)Nc2ccccc2)c(N)c1=O [Compound 5a, 5-Amino-1-ethyl-6-oxo-3-phenyl-1,6-dihydropyridazine-4-carboxylic acid phenylamide]",172 to 173 °C
3,"CCCNC(=O)c1c(-c2ccccc2)nn(CC)c(=O)c1N [Compound 5b, 5-Amino-1-ethyl-6-oxo-3-phenyl-1,6-dihydro-pyridazine-4-carboxylic acid propylamide]",141 to 143 °C
4,"NC(=O)c1c(-c2ccccc2)n[nH]c(=O)c1N [Compound 6, 5-Amino-6-oxo-3-phenyl-1,6-dihydropyridazine-4-carboxylic acid amide]",> 300 °C
5,"N#Cc1c(-c2ccccc2)n[nH]c(=O)c1N [Compound 7, 5-Amino-6-oxo-3-phenyl-1,6-dihydropyridazine-4-carbonitrile]",287 to 289 °C
6,"Cc1nn(-c2ccccc2)c(=O)c(N)c1C(N)=O [Compound 16, 5-Amino-3-methyl-6-oxo-1-phenyl-1,6-dihydropyridazine-4-carboxylic acid amide]",247 to 249 °C
7,"Cc1nn(-c2ccccc2)c(=O)c(N)c1C#N [Compound 17, 5-Amino-3-methyl-6-oxo-1-phenyl-1,6-dihydropyridazine-4-carbonitrile]",201 to 203 °C
8,"CC(=O)c1cnn(-c2ccccc2)c(=O)c1N [Compound 18, 5-Acetyl-4-amino-2-phenylpyridazin-3(2H)-one]",181 to 183 °C
9,"NC(=O)c1c(-c2ccccc2)nn(C2CCCCC2)c(=O)c1N [Compound 21, 5-Amino-1-cyclohexyl-6-oxo-3-phenyl-1,6-dihydropyridazine-4-carboxylic acid amide]",125 to 128 °C
10,"Nc1cc(-c2ccccc2)nn(C2CCCCC2)c1=O [Compound 24b, 4-Amino-2-cyclohexyl-6-phenylpyridazin-3(2H)-one]",120 to 124 °C
11,"CC(C)n1nc(-c2ccccc2)cc(N)c1=O [Compound 24d, 4-Amino-2-isopropyl-6-phenylpyridazin-3(2H)-one]",122 to 124 °C
12,"CCCn1nc(-c2ccccc2)cc(N)c1=O [Compound 24e, 4-Amino-6-phenyl-2-propylpyridazin-3(2H)-one]",79 to 81 °C
13,"CCCCn1nc(-c2ccccc2)cc(N)c1=O [Compound 24f, 4-Amino-2-butyl-6-phenylpyridazin-3(2H)-one]",67 to 69 °C
14,"NC(=O)Nc1cc(-c2ccccc2)nn(C2CCCCC2)c1=O [Compound 25b, (2-Cyclohexyl-3-oxo-6-phenyl-2,3-dihydro-pyridazin-4-yl)urea]",261 to 263 °C
15,"CC(C)n1nc(-c2ccccc2)cc(NC(N)=O)c1=O [Compound 25d, (2-Isopropyl-3-oxo-6-phenyl-2,3-dihydro-pyridazin-4-yl)urea]",260 to 263 °C
16,"CCCCn1nc(-c2ccccc2)cc(NC(N)=O)c1=O [Compound 25f, (2-Butyl-3-oxo-6-phenyl-2,3-dihydro-pyridazin-4-yl)urea]",265 to 267 °C
17,"NC(=O)Nc1cc(-c2ccccc2)n[nH]c1=O [Compound 28, (3-Oxo-6-phenyl-2,3-dihydro-pyridazin-4-yl)urea]",> 300 °C
18,"Cn1nc(-c2ccccc2)cc(N)c1=S [Compound 32, 4-Amino-2-methyl-6-phenylpyridazine-3(2H)-thione]",134 to 135 °C
19,"NC(=O)Nc1cc(-c2ccccc2O)n[nH]c1=O [Compound 40, [6-(2-Hydroxy-phenyl)-3-oxo-2,3-dihydro-pyridazin-4-yl]-urea]",> 300 °C
20,"Cn1nc(-c2ccccc2O)cc(NC(N)=O)c1=O [Compound 43, [6-(2-Hydroxyphenyl)-2-methyl-3-oxo-2,3-dihydropyridazin-4-yl]-urea]",278 to 280 °C

# The remaining lines, values ahead:
row,melting point,SMILES
1,211 to 212 °C,"CC(=O)Nc1cc(-c2ccccc2)nn(C)c1=O [Compound 29a, N-(2-Methyl-3-oxo-6-phenyl-2,3-dihydro-pyridazin-4-yl)acetamide]"
2,210 to 211 °C,"CCC(=O)Nc1cc(-c2ccccc2)nn(C)c1=O [Compound 29b, N-(2-Methyl-3-oxo-6-phenyl-2,3-dihydro-pyridazin-4-yl)propionamide]"
3,146 to 148 °C,"CC(C)C(=O)Nc1cc(-c2ccccc2)nn(C)c1=O [Compound 29c, N-(2-Methyl-3-oxo-6-phenyl-2,3-dihydro-pyridazin-4-yl)isobutyramide]"
4,187 to 189 °C,"CCCC(=O)Nc1cc(-c2ccccc2)nn(C)c1=O [Compound 29d, N-(2-Methyl-3-oxo-6-phenyl-2,3-dihydro-pyridazin-4-yl)butyramide]"
5,234 to 235 °C,"Cn1nc(-c2ccccc2)cc(Nc2cccc(C#N)c2)c1=O [Compound 30a, 3-(2-Methyl-3-oxo-6-phenyl-2,3-dihydro-pyridazin-4-ylamino)benzonitrile]"
6,214 to 216 °C,"Cn1nc(-c2ccccc2)cc(Nc2cccc(C(N)=O)c2)c1=O [Compound 31a, 3-(2-Methyl-3-oxo-6-phenyl-2,3-dihydro-pyridazin-4-ylamino)benzamide]"
7,140 to 142 °C,"Cn1nc(-c2ccccc2)cc(Nc2ccccc2C(N)=O)c1=O [Compound 31b, 2-(2-Methyl-3-oxo-6-phenyl-2,3-dihydro-pyridazin-4-ylamino)benzamide]"
8,> 300 °C,"Nc1cc(-c2ccsc2)n[nH]c1=O [Compound 37a, 4-Amino-6-thiophen-3-yl-pyridazin-3(2H)-one]"
9,284 to 287 °C,"Nc1cc(C2CCCCC2)n[nH]c1=O [Compound 37b, 4-Amino-6-cyclohexylpyridazin-3(2H)-one]"
10,246 to 248 °C,"CC(C)c1cc(N)c(=O)[nH]n1 [Compound 37c, 4-Amino-6-isopropylpyridazin-3(2H)-one]"
11,247 to 250 °C,"Nc1cc(Cc2ccccc2)n[nH]c1=O [Compound 37d, 4-Amino-6-benzylpyridazin-3(2H)-one]"
12,178 to 179 °C,"Cn1nc(-c2ccsc2)cc(N)c1=O [Compound 38a, 4-Amino-2-methyl-6-thiophen-3-yl-pyridazin-3(2H)-one]"
13,104 to 108 °C,"Cn1nc(Cc2ccccc2)cc(N)c1=O [Compound 38d, 4-Amino-6-benzyl-2-methylpyridazin-3(2H)-one]"
14,251 to 254 °C,"Cn1nc(C2CCCCC2)cc(NC(N)=O)c1=O [Compound 39a, (6-Cyclohexyl-2-methyl-3-oxo-2,3-dihydropyridazin-4-yl)urea]"
15,248 to 251 °C,"CC(C)c1cc(NC(N)=O)c(=O)n(C)n1 [Compound 39b, (6-Isopropyl-2-methyl-3-oxo-2,3-dihydropyridazin-4-yl)urea]"
16,212 to 213 °C,"Cn1nc(-c2ccccc2O)cc(N)c1=O [Compound 42a, 4-Amino-6-(2-hydroxyphenyl)-2-methylpyridazin-3(2H)-one]"
17,208 to 209 °C,"Cn1nc(-c2ccc(N)cc2)cc(N)c1=O [Compound 42b, 4-Amino-6-(4-aminophenyl)-2-methylpyridazin-3(2H)-one]"
